SMILES strings stand for the structures.

As usually defined, the IC50 is the concentration that inhibits the measured activity by half. The low end stands for greater potency in that assay, the high end for weaker potency in that assay.

Assay [1] concerns the target T1, Acetylcholinesterase (Rattus norvegicus, UniProt P37136).
T1 sequence (P37136 whole entry): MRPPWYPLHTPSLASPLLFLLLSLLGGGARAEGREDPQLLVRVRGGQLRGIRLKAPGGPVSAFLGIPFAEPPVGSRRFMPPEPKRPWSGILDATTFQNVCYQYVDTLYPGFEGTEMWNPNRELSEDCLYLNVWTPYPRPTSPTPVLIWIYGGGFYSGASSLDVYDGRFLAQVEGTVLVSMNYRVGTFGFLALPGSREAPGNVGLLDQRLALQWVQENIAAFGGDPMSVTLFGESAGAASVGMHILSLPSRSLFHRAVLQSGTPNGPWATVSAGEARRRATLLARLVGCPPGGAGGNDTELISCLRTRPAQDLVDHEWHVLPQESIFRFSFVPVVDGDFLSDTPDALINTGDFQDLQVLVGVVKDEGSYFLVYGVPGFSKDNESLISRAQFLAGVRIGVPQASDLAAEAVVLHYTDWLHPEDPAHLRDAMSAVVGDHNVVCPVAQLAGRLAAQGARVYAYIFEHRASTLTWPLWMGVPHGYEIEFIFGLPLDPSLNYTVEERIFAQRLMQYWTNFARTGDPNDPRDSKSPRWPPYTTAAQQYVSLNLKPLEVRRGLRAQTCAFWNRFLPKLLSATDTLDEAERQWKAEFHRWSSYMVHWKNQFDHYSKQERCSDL
Description: Inhibition of Acetylcholinesterase in rat red blood cell

For assay [2], the target named is Acetylcholinesterase (Homo sapiens, UniProt P22303).
Acetylcholinesterase (Homo sapiens, UniProt P22303), sequence (P22303 whole entry): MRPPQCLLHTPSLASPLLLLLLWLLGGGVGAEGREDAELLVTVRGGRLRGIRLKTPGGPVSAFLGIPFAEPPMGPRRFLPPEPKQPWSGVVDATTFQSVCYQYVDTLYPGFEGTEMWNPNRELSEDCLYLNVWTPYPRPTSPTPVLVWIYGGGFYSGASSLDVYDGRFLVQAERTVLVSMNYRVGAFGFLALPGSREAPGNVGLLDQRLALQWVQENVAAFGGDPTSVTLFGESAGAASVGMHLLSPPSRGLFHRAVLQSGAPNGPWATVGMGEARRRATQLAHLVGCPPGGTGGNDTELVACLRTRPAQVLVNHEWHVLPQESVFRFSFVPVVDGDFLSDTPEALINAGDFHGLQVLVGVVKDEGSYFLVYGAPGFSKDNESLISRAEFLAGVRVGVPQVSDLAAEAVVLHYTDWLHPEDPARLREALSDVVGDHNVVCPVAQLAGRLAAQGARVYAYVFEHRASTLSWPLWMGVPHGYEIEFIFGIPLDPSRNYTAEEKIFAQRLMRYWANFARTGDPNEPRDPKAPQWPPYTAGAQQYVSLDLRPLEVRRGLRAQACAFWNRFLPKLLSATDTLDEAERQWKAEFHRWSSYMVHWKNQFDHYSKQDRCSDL
Description: Inhibition of Acetylcholinesterase in human red blood cell
Assay [3] concerns the target T2, Acetylcholinesterase (Mus musculus, UniProt P21836).
T2 sequence (P21836 whole entry): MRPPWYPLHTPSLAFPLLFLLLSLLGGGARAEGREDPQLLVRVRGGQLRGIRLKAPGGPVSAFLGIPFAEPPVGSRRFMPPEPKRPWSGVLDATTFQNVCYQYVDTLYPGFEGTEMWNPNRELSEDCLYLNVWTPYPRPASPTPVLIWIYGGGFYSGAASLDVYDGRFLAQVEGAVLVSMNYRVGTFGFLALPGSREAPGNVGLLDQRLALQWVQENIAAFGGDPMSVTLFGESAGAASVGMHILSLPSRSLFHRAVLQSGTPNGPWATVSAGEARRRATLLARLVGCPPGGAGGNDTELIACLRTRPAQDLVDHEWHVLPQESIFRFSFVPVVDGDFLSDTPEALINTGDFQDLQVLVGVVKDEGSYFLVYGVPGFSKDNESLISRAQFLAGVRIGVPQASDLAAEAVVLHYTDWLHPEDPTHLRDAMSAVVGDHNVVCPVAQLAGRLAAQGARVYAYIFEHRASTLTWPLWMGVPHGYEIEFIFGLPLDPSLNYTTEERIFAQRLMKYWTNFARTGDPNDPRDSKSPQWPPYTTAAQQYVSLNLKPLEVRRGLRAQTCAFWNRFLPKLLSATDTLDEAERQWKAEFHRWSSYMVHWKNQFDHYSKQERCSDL
Description: Inhibition of Acetylcholinesterase in mouse red blood cell

Regarding `Nc1c2c(nc3ccccc13)CCC(O)C2` (stereo not given), the IC50 was found to be 1770 nM on Acetylcholinesterase [1], 1610 nM against Acetylcholinesterase [2] and 4820 nM against Acetylcholinesterase [3].

Take `Nc1c2c(nc3ccccc13)C(O)CCC2` (stereo not given): the half-maximal inhibitory concentration (IC50) against Acetylcholinesterase [1] stood at 411 nM; on Acetylcholinesterase [2], 521 nM; at Acetylcholinesterase [3], 1430 nM.

In the case of `Nc1c2c(nc3ccccc13)CC(O)CC2` (stereo not given) [7-HYDROXYTACRINE], the results for the IC50 at Acetylcholinesterase [1], against Acetylcholinesterase [2] and on Acetylcholinesterase [3] were 483 nM, 623 nM and 1210 nM, respectively.

Turning to `Nc1c2c(nc3ccccc13)CCCC2O` (stereo not given) [VELNACRINE], the IC50 on Acetylcholinesterase [1] stood at 361 nM.

For the origin of these results see ChEMBL document CHEMBL1129252, “Identification of a 3-hydroxylated tacrine metabolite in rat and man: metabolic profiling implications and pharmacology” (J Med Chem, 1996).
